From patent US11078202B2, “β-lactamase inhibitor and use thereof” (priority 2018, dated 2021)
Counter-ions that a name gives are not always drawn.

What was measured:
Type in all cases: cell-based
[1] = tested on: Klebsiella pneumoniae XNWB 0006; test: MIC assay of test compounds combined with imipenem (4 μg/mL); details: imipenem 4 μg/mL fixed
Experimental: (§1) The bacterial strains used for the minimum inhibitory concentration (MIC) test were frozen in a −80° C. ULT freezer and thawed 2 days before use. A small amount of frozen bacterial strains were scraped using a sterile inoculating loop, streaked onto a TSA solid culture dish for inoculation, and then cultured for 20-24 h at 35±2° C. in a normal atmospheric environment. 5-10 colonies with similar morphology were picked from the culture dish using a sterile inoculating loop and then re-streaked onto a suitable solid culture dish. Then the dish was placed into a normal incubator for culture for 20-24 h at 35±2° C. 5-10 single bacterial colonies were picked from the solid culture dish, resuspended in 500 μL of 0.9% NaCl, and adjusted to an OD600 of 0.1-0.15 with a spectrophotometer. The bacteria were then diluted 300-fold with 1.1×CAMHB. […] Dilution of test compounds: […] 2 μL of each compound in the dilution master plate of the test compounds was transferred to the corresponding well of the assay plates. In the mean time, 2 μL of 100% DMSO was transferred to the compound-free wells (GC and SC wells). (1) 8 μL of imipenem in the additive plate of imipenem was transferred to the corresponding wells of the assay plates; (2) 8 μL of ceftazidime in the additive plate of ceftazidime was transferred to the corresponding wells of the assay plates; (3) 8 μL of ampicillin in the additive plate of ampicillin was transferred to the corresponding wells of the assay plates. 90 μL of corresponding bacterial inocula were added to wells (except for SC wells) of the assay plates. After addition, the 6 assay plates were covered by sterile covers. The mixtures in the assay plates were centrifuged by a centrifuge at 1000 rpm for 30 s, and mixed uniformly by oscillating with a microplate oscillator at 800 rpm for 1 min, and then cultured in a common incubator for 16-20 h at 35±2° C. The minimum inhibitory concentration of each compound was recorded by reference to guidelines from the Clinical and Laboratory Standards Institute. […] The effect of the test compounds in combination with imipenem, ceftazidime, and ampicillin was also tested. […] The bacterial inocula in the assay plates were resuscitated from TSA and diluted in CAMHB, while growth controls (GC wells) and sterile controls (SC wells) were set up in the assay plates. The minimum inhibitory concentration of each compound combination against different bacteria was observed and recorded after the assay plates were incubated in a common incubator at 35±2° C. for 16-20 h, and the results are shown in Tables 1-3.

[2] = tested on: Klebsiella pneumoniae XNWB 0003; test: as above; details: imipenem 4 μg/mL fixed
Experimental: as §1

[3] = tested on: Klebsiella pneumoniae XNWB 0001; test: as above; details: imipenem 4 μg/mL fixed
Experimental: as §1

[4] = tested on: Acinetobacter baumannii XNWB 0007; test: as above; details: imipenem 4 μg/mL fixed
Experimental: as §1

[5] = tested on: Klebsiella pneumoniae XNWB 0005; test: as above; details: imipenem 4 μg/mL fixed
Experimental: as §1

[6] = tested on: Klebsiella pneumoniae XNWB 0004; test: as above; details: imipenem 4 μg/mL fixed
Experimental: as §1

[7] = tested on: Pseudomonas aeruginosa XNWB 0008; test: as above; details: imipenem 4 μg/mL fixed
Experimental: as §1

[8] = tested on: Klebsiella pneumoniae XNWB 0002; test: as above; details: imipenem 4 μg/mL fixed
Experimental: as §1

[9] = tested on: Klebsiella pneumoniae XNWB 0006; test: MIC assay of test compounds combined with ceftazidime (8 μg/mL); details: ceftazidime 8 μg/mL fixed
Experimental: as §1

[10] = tested on: Klebsiella pneumoniae XNWB 0003; test: as above; details: ceftazidime 8 μg/mL fixed
Experimental: as §1

[11] = tested on: Klebsiella pneumoniae XNWB 0001; test: as above; details: ceftazidime 8 μg/mL fixed
Experimental: as §1

[12] = tested on: Acinetobacter baumannii XNWB 0007; test: as above; details: ceftazidime 8 μg/mL fixed
Experimental: as §1

[13] = tested on: Klebsiella pneumoniae XNWB 0005; test: as above; details: ceftazidime 8 μg/mL fixed
Experimental: as §1

[14] = tested on: Klebsiella pneumoniae XNWB 0004; test: as above; details: ceftazidime 8 μg/mL fixed
Experimental: as §1

[15] = tested on: Pseudomonas aeruginosa XNWB 0008; test: as above; details: ceftazidime 8 μg/mL fixed
Experimental: as §1

[16] = tested on: Klebsiella pneumoniae XNWB 0002; test: as above; details: ceftazidime 8 μg/mL fixed
Experimental: as §1

Compound	The minimum concentration of test compounds combined with imipenem (4 μg/mL) for bacteriostasis [1]	The minimum concentration of test compounds combined with imipenem (4 μg/mL) for bacteriostasis [2]	The minimum concentration of test compounds combined with imipenem (4 μg/mL) for bacteriostasis [3]	The minimum concentration of test compounds combined with imipenem (4 μg/mL) for bacteriostasis [4]	The minimum concentration of test compounds combined with imipenem (4 μg/mL) for bacteriostasis [5]	The minimum concentration of test compounds combined with imipenem (4 μg/mL) for bacteriostasis [6]	The minimum concentration of test compounds combined with imipenem (4 μg/mL) for bacteriostasis [7]	The minimum concentration of test compounds combined with imipenem (4 μg/mL) for bacteriostasis [8]	The minimum concentration of test compounds combined with ceftazidime (8 μg/mL) for bacteriostasis [9]	The minimum concentration of test compounds combined with ceftazidime (8 μg/mL) for bacteriostasis [10]	The minimum concentration of test compounds combined with ceftazidime (8 μg/mL) for bacteriostasis [11]	The minimum concentration of test compounds combined with ceftazidime (8 μg/mL) for bacteriostasis [12]	The minimum concentration of test compounds combined with ceftazidime (8 μg/mL) for bacteriostasis [13]	The minimum concentration of test compounds combined with ceftazidime (8 μg/mL) for bacteriostasis [14]	The minimum concentration of test compounds combined with ceftazidime (8 μg/mL) for bacteriostasis [15]	The minimum concentration of test compounds combined with ceftazidime (8 μg/mL) for bacteriostasis [16]
O=C(NC1CNC1)[C@@H]1CC2(CC2)[C@@H]2CN1C(=O)N2OS(=O)(=O)O [Example 29, (1R,4S)-4-(azetidin-3-ylaminoformyl)-6-oxo-5,7-diazaspiro[bicyclo[3.2.1]octane-2,1′-cyclopropan]-7-yl sulfate]	A (A: <8 μg/mL)	A (A: <8 μg/mL)	A (A: <8 μg/mL)	C (C: 16-128 μg/mL)	A (A: <8 μg/mL)	A (A: <8 μg/mL)	A (A: <8 μg/mL)	A (A: <8 μg/mL)	A (A: <8 μg/mL)	A (A: <8 μg/mL)	A (A: <8 μg/mL)	C (C: 16-128 μg/mL)	A (A: <8 μg/mL)	A (A: <8 μg/mL)	B (B: 8-16 μg/mL)	A (A: <8 μg/mL)
N=C(N)NC[C@@H](O)c1nnc([C@@H]2CC3(CC3)[C@@H]3CN2C(=O)N3OS(=O)(=O)O)o1 [Example 11, (1R,4S)-4-(5-((R)-2-guanidyl-1-hydroxyethyl)-1,3,4-oxadiazol-2-yl)-6-oxo-5,7-diazaspiro[bicyclo[3.2.1]octane-2,1′-cyclopropan]-7-yl sulfate]	A (A: <8 μg/mL)	A (A: <8 μg/mL)	A (A: <8 μg/mL)	B (B: 8-16 μg/mL)	A (A: <8 μg/mL)	A (A: <8 μg/mL)	B (B: 8-16 μg/mL)	A (A: <8 μg/mL)	A (A: <8 μg/mL)	A (A: <8 μg/mL)	A (A: <8 μg/mL)	C (C: 16-128 μg/mL)	A (A: <8 μg/mL)	A (A: <8 μg/mL)	C (C: 16-128 μg/mL)	A (A: <8 μg/mL)
N=C(N)NCCc1nnc([C@@H]2CC3(CC3)[C@@H]3CN2C(=O)N3OS(=O)(=O)O)o1 [Example 5, (1R,4S)-4-(5-(2-guanidinoethyl)-1,3,4-oxadiazol-2-yl)-6-oxo-5,7-diazaspiro[bicycle [3.2.1]octane-2,1′-cyclopropan]-7-yl sulfate]	A (A: <8 μg/mL)	A (A: <8 μg/mL)	A (A: <8 μg/mL)	B (B: 8-16 μg/mL)	A (A: <8 μg/mL)	A (A: <8 μg/mL)	B (B: 8-16 μg/mL)	A (A: <8 μg/mL)	A (A: <8 μg/mL)	A (A: <8 μg/mL)	A (A: <8 μg/mL)	C (C: 16-128 μg/mL)	B (B: 8-16 μg/mL)	B (B: 8-16 μg/mL)	C (C: 16-128 μg/mL)	A (A: <8 μg/mL)
